We go through eleven compounds from patent publication US20240174629A1 (OTCPHARM JSC, priority 2021, published 2024).

Values after ≈ are worked out from the molar mass of the structure shown. Structures can show the parent of a compound that is named as a salt. Where two headings read alike, the source gives them in different places.

Data set [1] in a line: Cytotoxicity, microtetrazolium test (MTT). The settings on record: dog, MDCK cells, CC50 (MDCK), mean ±SD.
Another data set deals with SARS-CoV-2 coronavirus. In words: Activity against SARS-CoV-2 coronavirus on U2-OS ACE2 cells (S-Fuse, GFP signal). It counts as cell-based. Particulars: Severe acute respiratory syndrome coronavirus 2, U2OS; SARS-CoV-2, U2-OS ACE2 cells, MOI 0.1, 20 hours.
For the next data set, the system named is U2-OS ACE2 cells. Nature of the data set: Cytotoxicity on U2-OS ACE2 cells (Hoechst signal). Particulars: 20 hours.
Data set [2] deals with MDCK cells.
A short description of data set [3]: Acute oral toxicity, fixed dose method (OECD 420). The settings on record: for GHS hazard class: acute oral toxicity in mice, UN GHS classification; for Died / Survived: female BALB/c mice, intragastric.
Data set [4] deals with MDCK cells. Nature of the data set: Cytotoxicity, microtetrazolium test (MTT). Particulars: 48 h, mean ±SD.

In turn, `COC(=O)c1c(N(Cc2ccccc2)C(C)=O)sc2c(CN(C)C)c(O)ccc12` [Example 50, Methyl 2-[acelyl (benzyl)amino-7-[(dimethylamino)methyl]-6-hydroxy-1-benzothiophene-3-carboxylate] had a CC50 at 48 h in data set [1] of 182 µg/mL (≈ 441 µM). This compound also showed an IC50 in the data set with SARS-CoV-2 coronavirus of 9.08 µM. In the data set with U2-OS ACE2 cells, the Cytotoxicity entry is listed as “Non-toxic up to 2500 μM”.

On to `COC(=O)c1c(N(Cc2ccccc2)C(C)=O)sc2cc(O)ccc12` [Example 4, Methyl 2-[acetyl(benzyl)amino]-6-hydroxy-1-benzothiophene-3-carboxylate], for which the melting point is 165 to 167 °C. Also, the 50% cytotoxic concentration (CC50) at 48 h in data set [1] was found to be 200 µg/mL (≈ 563 µM). For the same compound, the IC50 in the data set on SARS-CoV-2 coronavirus turned out to be 10.6 µM. For the same compound, the Cytotoxicity entry with U2-OS ACE2 cells is “Non-toxic up to 2500 μM”.

`CCOC(=O)c1c(CSc2ccccc2)n(C)c2cc(Br)c(O)c(CN(C)C)c12` [Umifenovir, reference compound] displayed a CC50 at 48 h in data set [1] of 16 µg/mL (≈ 33.5 µM). It took 76 µM to reach half-maximal inhibition with SARS-CoV-2 coronavirus (IC50). Further, the Cytotoxicity entry in the data set on U2-OS ACE2 cells is reported as “Non-toxic up to 2500 μM”.

`COC(=O)c1c(N(Cc2ccc(F)cc2F)C(C)=O)sc2c(CN(C)C)c(O)ccc12` [Example 55] had a melting point of 118 to 122 °C. The same compound had a half-maximal cytotoxic concentration (CC50) at 48 h in data set [1] greater than 300 µg/mL. Besides, in the data set with SARS-CoV-2 coronavirus, the IC50 is 15.6 µM. In addition, the Cytotoxicity entry in the data set on U2-OS ACE2 cells is recorded as “Non-toxic up to 2500 μM”.

`CSc1nc2nnc([N+](=O)[O-])c(=O)n2[nH]1` [Triazavirin, Methylthionitrooxodihydro-triazolotriazinide sodium]: the “CC50 (MDCK)” value with MDCK cells [2] was determined as 298 ± 22 µg/mL.

`CNC(=O)c1c(N(Cc2ccccc2)C(C)=O)sc2cc(O)ccc12` [Example 73, 2-[acetyl(benzyl)amino]-6-hydroxy-N-methyl-1-benzothiophene-3-carboxamide]: the CC50 at 48 h in data set [1] is greater than 300 µg/mL. Moreover, the IC50 with SARS-CoV-2 coronavirus came out at 23 µM. In the data set on U2-OS ACE2 cells, the Cytotoxicity entry is on record as “Non-toxic up to 2500 μM”. Besides, the GHS hazard class in data set [3] came to 5. In data set [3] (2000 mg/kg), this compound gave a Died of 0 and a Survived of 4.

The compound `CCN(CC)Cc1c(O)ccc2c(C(=O)OC)c(N(Cc3ccccc3)C(C)=O)sc12` [Example 64, hydrochloride] displayed a cytotoxic concentration (CC50) at 48 h in data set [1] of 148 ± 11 µg/mL. Besides, in the data set with SARS-CoV-2 coronavirus, the IC50 came to 9.12 µM. Also, the Cytotoxicity entry in the data set with U2-OS ACE2 cells was “Non-toxic up to 2500 μM”.

Take `COC(=O)c1c(N(Cc2ccc(F)cc2)C(C)=O)sc2c(CN(C)C)c(O)ccc12` [Example 62, Methyl 2-[acetyl(4-fluorobenzyl)amino-7-[(dimethylamino)methyl]-6-hydroxy-1-benzothiophene-3-carboxylate hydrochloride]: the half-maximal cytotoxic concentration (CC50) at 48 h in data set [1] stood at 92 ± 7 µg/mL. In the data set on SARS-CoV-2 coronavirus, this compound showed an IC50 of 11.3 µM. Further, the Cytotoxicity entry in the data set on U2-OS ACE2 cells was “Non-toxic up to 2500 μM”.

As for `COC(=O)c1c(N(Cc2ccccc2)C(C)=O)sc2c(CN(C)C)c(O)ccc12` [Example 61, Methyl 2-[acetyl(benzyl)amino-7-[(dimethylamino)methyl]-6-hydroxy-1-benzothiophene-3-carboxylate hydrochloride], the “CC50 (MDCK)” value with MDCK cells [4] (hydrochloride) was greater than 300 µg/mL. The same compound gave a GHS hazard class in data set [3] of 4. Further, in data set [3] (300 mg/kg), the Died was 0 and the Survived worked out at 4. In data set [3] (2000 mg/kg), this compound registered a Died of 1 and a Survived of 1.

For the compound “Pentandioic acid imidazolylethanamide [Ingavirin, reference compound]”, the “CC50 (MDCK)” value in the data set with MDCK cells [4] worked out at 300 ± 12 µg/mL.

Compound `COC(=O)c1c(N(Cc2ccccc2)C(C)=O)sc2c(CN3CCN(C)CC3)c(O)ccc12` [Example 65, Methyl 2-[acetyl(benzyl)amino-6-hydroxy-7-[(4-methylpiperazin-1-yl)methyl]-1-benzothiophene-3-carboxylate hydrochloride] registered a CC50 at 48 h in data set [1] of 18.7 ± 1.6 µg/mL. Further, the IC50 in the data set on SARS-CoV-2 coronavirus turned out to be 9.8 µM. The Cytotoxicity entry in the data set with U2-OS ACE2 cells was “Non-toxic up to 2500 μM”.

As a reminder, the CC50 is the concentration giving 50% cytotoxicity. A low value points to harm at low concentration. As a reminder, the IC50 is the point on the concentration scale where inhibition reaches its midpoint. Lower therefore signals higher potency. As a reminder, the melting point is the temperature of the solid-liquid transition.
